# Data as given in PubChem BioAssay (NCI).
# Several values for one entry are separate records, joined by “and”; a condition that tells them apart may be missing. Equal values may be shown once.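 96-well plates; 48 h exposure; 5 concentrations. Endpoints by linear interpolation between flanking doses. Not reached: highest tested concentration assigned. GI50: concentration for 50% inhibition of growth. The concentration for full growth arrest is given as TGI.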
# Key:
# Assay in all cases: NCI-60 cell line screen, 48 h
# 786-0 renal = test system: 786-0 renal
# A549 NSCLC = test system: A549 NSCLC
# ACHN renal = test system: ACHN renal
# CAKI-1 renal = test system: CAKI-1 renal
# CCRF-CEM leukemia = test system: CCRF-CEM leukemia
# COLO 205 colon = test system: COLO 205 colon
# DLD-1 colon = test system: DLD-1 colon
# DMS 114 small cell lung = test system: DMS 114 small cell lung
# DMS 273 small cell lung = test system: DMS 273 small cell lung
# EKVX NSCLC = test system: EKVX NSCLC
# HCC-2998 colon = test system: HCC-2998 colon
# HCT-116 colon = test system: HCT-116 colon
# HCT-15 colon = test system: HCT-15 colon
# HL-60(TB) leukemia = test system: HL-60(TB) leukemia
# HOP-62 NSCLC = test system: HOP-62 NSCLC
# HOP-92 NSCLC = test system: HOP-92 NSCLC
# HT29 colon = test system: HT29 colon
# IGROV1 ovarian = test system: IGROV1 ovarian
# K-562 leukemia = test system: K-562 leukemia
# KM12 colon = test system: KM12 colon
# KM20L2 colon = test system: KM20L2 colon
# LOX IMVI melanoma = test system: LOX IMVI melanoma
# LXFL 529 NSCLC = test system: LXFL 529 NSCLC
# M14 melanoma = test system: M14 melanoma
# M19-MEL melanoma = test system: M19-MEL melanoma
# MALME-3M melanoma = test system: MALME-3M melanoma
# MOLT-4 leukemia = test system: MOLT-4 leukemia
# NCI-H226 lung = test system: NCI-H226 lung
# NCI-H460 lung = test system: NCI-H460 lung
# OVCAR-3 ovarian = test system: OVCAR-3 ovarian
# OVCAR-4 ovarian = test system: OVCAR-4 ovarian
# OVCAR-5 ovarian = test system: OVCAR-5 ovarian
# OVCAR-8 ovarian = test system: OVCAR-8 ovarian
# RPMI-8226 leukemia = test system: RPMI-8226 leukemia
# RXF 393 renal = test system: RXF 393 renal
# SF-295 CNS = test system: SF-295 CNS
# SK-MEL-2 melanoma = test system: SK-MEL-2 melanoma
# SK-MEL-28 melanoma = test system: SK-MEL-28 melanoma
# SK-MEL-5 melanoma = test system: SK-MEL-5 melanoma
# SK-OV-3 ovarian = test system: SK-OV-3 ovarian
# SN12C renal = test system: SN12C renal
# SNB-19 CNS = test system: SNB-19 CNS
# SNB-75 CNS = test system: SNB-75 CNS
# SW-620 colon = test system: SW-620 colon
# TK-10 renal = test system: TK-10 renal
# U251 CNS = test system: U251 CNS
# UACC-257 melanoma = test system: UACC-257 melanoma
# UACC-62 melanoma = test system: UACC-62 melanoma
# UO-31 renal = test system: UO-31 renal
# XF 498 CNS = test system: XF 498 CNS
# A498 renal = test system: A498 renal
# BT-549 breast = test system: BT-549 breast
# DU-145 prostate = test system: DU-145 prostate
# HS 578T breast = test system: HS 578T breast
# MCF7 breast = test system: MCF7 breast
# MDA-MB-231 breast = test system: MDA-MB-231 breast
# MDA-MB-435 = test system: MDA-MB-435
# MDA-N = test system: MDA-N
# NCI-H23 lung = test system: NCI-H23 lung
# NCI-H522 lung = test system: NCI-H522 lung
# NCI/ADR-RES ovarian = test system: NCI/ADR-RES ovarian
# PC-3 prostate = test system: PC-3 prostate
# SF-268 CNS = test system: SF-268 CNS
# SF-539 CNS = test system: SF-539 CNS
# SR leukemia = test system: SR leukemia
# T-47D breast = test system: T-47D breast
structure (smiles),measurement,setting,value
CC(C)(C)C(=O)Nc1ccccc1Br,TGI,786-0 renal,> 100 µM
same,TGI,A549 NSCLC,> 100 µM
same,TGI,ACHN renal,> 100 µM
same,TGI,CAKI-1 renal,> 100 µM
same,TGI,CCRF-CEM leukemia,> 100 µM
same,TGI,COLO 205 colon,> 100 µM
same,TGI,DLD-1 colon,> 100 µM
same,TGI,DMS 114 small cell lung,> 100 µM
same,TGI,DMS 273 small cell lung,> 100 µM
same,TGI,EKVX NSCLC,> 100 µM
same,TGI,HCC-2998 colon,> 100 µM
same,TGI,HCT-116 colon,> 100 µM
same,TGI,HCT-15 colon,> 100 µM
same,TGI,HL-60(TB) leukemia,> 100 µM
same,TGI,HOP-62 NSCLC,> 100 µM
same,TGI,HOP-92 NSCLC,> 100 µM
same,TGI,HT29 colon,> 100 µM
same,TGI,IGROV1 ovarian,> 100 µM
same,TGI,K-562 leukemia,> 100 µM
same,TGI,KM12 colon,> 100 µM
same,TGI,KM20L2 colon,> 100 µM
same,TGI,LOX IMVI melanoma,> 100 µM
same,TGI,LXFL 529 NSCLC,> 100 µM
same,TGI,M14 melanoma,> 100 µM
same,TGI,M19-MEL melanoma,> 100 µM
same,TGI,MALME-3M melanoma,> 100 µM
same,TGI,MOLT-4 leukemia,> 100 µM
same,TGI,NCI-H226 lung,> 100 µM
same,TGI,NCI-H460 lung,> 100 µM
same,TGI,OVCAR-3 ovarian,> 100 µM
same,TGI,OVCAR-4 ovarian,> 100 µM
same,TGI,OVCAR-5 ovarian,> 100 µM
same,TGI,OVCAR-8 ovarian,> 100 µM
same,TGI,RPMI-8226 leukemia,> 100 µM
same,TGI,RXF 393 renal,> 100 µM
same,TGI,SF-295 CNS,> 100 µM
same,TGI,SK-MEL-2 melanoma,> 100 µM
same,TGI,SK-MEL-28 melanoma,> 100 µM
same,TGI,SK-MEL-5 melanoma,> 100 µM
same,TGI,SK-OV-3 ovarian,> 100 µM
same,TGI,SN12C renal,> 100 µM
same,TGI,SNB-19 CNS,> 100 µM
same,TGI,SNB-75 CNS,> 100 µM
same,TGI,SW-620 colon,> 100 µM
same,TGI,TK-10 renal,> 100 µM
same,TGI,U251 CNS,> 100 µM
same,TGI,UACC-257 melanoma,> 100 µM
same,TGI,UACC-62 melanoma,> 100 µM
same,TGI,UO-31 renal,> 100 µM
same,TGI,XF 498 CNS,> 100 µM
Cc1c2ncccc2c(C)c2c1[nH]c1ccc(O)cc12,GI50,786-0 renal,5.25 µM
same,TGI,786-0 renal,15.6 µM and 11.6 µM
same,TGI,A498 renal,26.1 µM
same,GI50,A549 NSCLC,4.89 µM and 1.93 µM
same,TGI,A549 NSCLC,15.4 µM and 13 µM
same,GI50,ACHN renal,3.06 µM
same,TGI,ACHN renal,12.4 µM and 18.7 µM
same,TGI,BT-549 breast,29.3 µM
same,TGI,CAKI-1 renal,15.8 µM
same,GI50,CCRF-CEM leukemia,4.65 µM
same,TGI,CCRF-CEM leukemia,5.49 µM
same,GI50,COLO 205 colon,23.1 µM
same,TGI,COLO 205 colon,24.3 µM and 111 µM
same,GI50,DU-145 prostate,5.31 µM
same,TGI,DU-145 prostate,17.9 µM
same,GI50,EKVX NSCLC,1.01 µM
same,TGI,EKVX NSCLC,17.3 µM and 63 µM
same,TGI,HCC-2998 colon,17.9 µM and 12.3 µM
same,GI50,HCT-116 colon,2.91 µM and 6.58 µM
same,TGI,HCT-116 colon,11 µM and 64.6 µM
same,GI50,HCT-15 colon,6.16 µM and 6.53 µM
same,TGI,HCT-15 colon,17.6 µM and 40 µM
same,GI50,HL-60(TB) leukemia,3.84 µM and 4.76 µM
same,TGI,HL-60(TB) leukemia,10.5 µM and 15 µM
same,GI50,HOP-62 NSCLC,4.01 µM and 5.07 µM
same,TGI,HOP-62 NSCLC,10.8 µM and 59.5 µM
same,TGI,HOP-92 NSCLC,17.3 µM
same,GI50,HS 578T breast,7.84 µM
same,TGI,HS 578T breast,21.2 µM and 84.8 µM
same,TGI,HT29 colon,32.3 µM
same,GI50,IGROV1 ovarian,7.29 µM and 11.6 µM
same,TGI,IGROV1 ovarian,21.5 µM and 102 µM
same,GI50,K-562 leukemia,5.04 µM
same,TGI,K-562 leukemia,20.9 µM and 50.4 µM
same,GI50,KM12 colon,7.19 µM and 7.87 µM
same,TGI,KM12 colon,19.9 µM and 23.1 µM
same,GI50,LOX IMVI melanoma,2.39 µM
same,TGI,LOX IMVI melanoma,6.61 µM
same,GI50,M14 melanoma,8.67 µM
same,TGI,M14 melanoma,17.2 µM
same,GI50,MALME-3M melanoma,6.44 µM and 32.7 µM
same,TGI,MALME-3M melanoma,23.2 µM and 103 µM
same,GI50,MCF7 breast,5.95 µM and 8.58 µM
same,TGI,MCF7 breast,15.2 µM and 50 µM
same,GI50,MDA-MB-231 breast,7.26 µM
same,TGI,MDA-MB-231 breast,19.2 µM and 54.4 µM
same,TGI,MDA-MB-435,20.9 µM
same,GI50,MDA-N,9.69 µM
same,TGI,MDA-N,17.9 µM and 47.5 µM
same,TGI,MOLT-4 leukemia,3.56 µM and 2.13 µM
same,GI50,NCI-H226 lung,7.8 µM
same,TGI,NCI-H226 lung,22.2 µM and 17.6 µM
same,GI50,NCI-H23 lung,11.9 µM and 19 µM
same,GI50,NCI-H460 lung,2.78 µM and 1.6 µM
same,TGI,NCI-H460 lung,12.8 µM and 7.17 µM
same,TGI,NCI-H522 lung,19.6 µM
same,GI50,NCI/ADR-RES ovarian,4.08 µM
same,TGI,NCI/ADR-RES ovarian,21 µM
same,GI50,OVCAR-3 ovarian,4.01 µM
same,TGI,OVCAR-3 ovarian,20 µM
same,TGI,OVCAR-4 ovarian,16 µM
same,GI50,OVCAR-5 ovarian,46.6 µM
same,TGI,OVCAR-5 ovarian,24.4 µM and 120 µM
same,GI50,OVCAR-8 ovarian,4.99 µM and 2.86 µM
same,TGI,OVCAR-8 ovarian,18.2 µM and 32.1 µM
same,GI50,PC-3 prostate,7.27 µM and 5.01 µM
same,TGI,PC-3 prostate,13.7 µM and 12.2 µM
same,GI50,RPMI-8226 leukemia,3.07 µM
same,TGI,RPMI-8226 leukemia,8.78 µM and 15.4 µM
same,GI50,RXF 393 renal,10.7 µM
same,TGI,RXF 393 renal,9.81 µM and 43 µM
same,GI50,SF-268 CNS,7.55 µM
same,TGI,SF-268 CNS,19.1 µM
same,GI50,SF-295 CNS,4.53 µM
same,TGI,SF-295 CNS,10.3 µM
same,GI50,SF-539 CNS,4.85 µM
same,TGI,SF-539 CNS,20.8 µM
same,TGI,SK-MEL-2 melanoma,97.5 µM
same,TGI,SK-MEL-28 melanoma,27.3 µM
same,GI50,SK-MEL-5 melanoma,3.95 µM
same,TGI,SK-MEL-5 melanoma,20.4 µM and 15 µM
same,TGI,SK-OV-3 ovarian,11.4 µM
same,GI50,SN12C renal,5.99 µM and 5.39 µM
same,TGI,SN12C renal,14.2 µM and 42.5 µM
same,GI50,SNB-19 CNS,19.7 µM
same,TGI,SNB-19 CNS,20.2 µM and 84.3 µM
same,GI50,SNB-75 CNS,7.45 µM and 15.2 µM
same,GI50,SR leukemia,2.91 µM and 2.48 µM
same,TGI,SR leukemia,7.31 µM and 18.9 µM
same,GI50,SW-620 colon,7.83 µM
same,TGI,SW-620 colon,39.9 µM
same,GI50,T-47D breast,42.8 µM
same,GI50,TK-10 renal,17.4 µM
same,TGI,TK-10 renal,25.9 µM and 61.6 µM
same,GI50,U251 CNS,9.94 µM and 4.34 µM
same,TGI,U251 CNS,13.9 µM and 21.6 µM
same,GI50,UACC-257 melanoma,27.3 µM
same,TGI,UACC-257 melanoma,25.2 µM and 89 µM
same,GI50,UACC-62 melanoma,7.92 µM
same,TGI,UACC-62 melanoma,27.1 µM and 21.1 µM
same,GI50,UO-31 renal,8.04 µM
same,TGI,UO-31 renal,16.7 µM and 28.4 µM
